Laboratory results as given in ChEMBL document CHEMBL3352643, “Synthesis and antiproliferative activity of 6-phenylaminopurines” (Eur J Med Chem, 2014).
pIC50: −log10 of the molar value.

Assays:
Format in all cases: functional
[1] = Antiproliferative activity against human HMEC1 cells assessed as inhibition of cell proliferation after 4 days by Coulter counter based cell counting method; conditions: HMEC-1, 96 h
[2] = Antiproliferative activity against mouse MBEC assessed as inhibition of cell proliferation after 3 days by Coulter counter based cell counting method; conditions: 72 h
[3] = Antiproliferative activity against BAEC assessed as inhibition of cell proliferation after 3 days by Coulter counter based cell counting method; conditions: Bos taurus, 72 h
L1210 = assay: Antiproliferative activity against mouse L1210 assessed as inhibition of cell proliferation after 48 hrs by Coulter counter based cell counting method; conditions: L1210, 48 h
CCRF-CEM = assay: Antiproliferative activity against human CEM cells assessed as inhibition of cell proliferation after 96 hrs by Coulter counter based cell counting method
HeLa [4] = assay: Antiproliferative activity against human HeLa cells assessed as inhibition of cell proliferation after 4 days by Coulter counter based cell counting method; conditions: 96 h
HeLa [5] = assay: Induction of cell cycle arrest in human HeLa cells assessed as accumulation at subG1 phase at 20 uM after 24 hrs by propidium iodide staining based flow cytometry (reference value: 1%)
HeLa [6] = assay: Induction of cell cycle arrest in human HeLa cells assessed as accumulation at subG1 phase at 100 uM after 24 hrs by propidium iodide staining based flow cytometry (reference value: 1%)
HeLa [7] = assay: Induction of cell cycle arrest in human HeLa cells assessed as accumulation at G1 phase at 20 uM after 24 hrs by propidium iodide staining based flow cytometry (reference value: 45%)
HeLa [8] = assay: Induction of cell cycle arrest in human HeLa cells assessed as accumulation at G1 phase at 100 uM after 24 hrs by propidium iodide staining based flow cytometry (reference value: 45%)
HeLa [9] = assay: Induction of cell cycle arrest in human HeLa cells assessed as accumulation at S phase at 20 uM after 24 hrs by propidium iodide staining based flow cytometry (reference value: 24%)
HeLa [10] = assay: Induction of cell cycle arrest in human HeLa cells assessed as accumulation at S phase at 100 uM after 24 hrs by propidium iodide staining based flow cytometry (reference value: 24%)
HeLa [11] = assay: Induction of cell cycle arrest in human HeLa cells assessed as accumulation at G2/M phase at 20 uM after 24 hrs by propidium iodide staining based flow cytometry (reference value: 31%)
HeLa [12] = assay: Induction of cell cycle arrest in human HeLa cells assessed as accumulation at G2/M phase at 100 uM after 24 hrs by propidium iodide staining based flow cytometry (reference value: 31%)
HeLa [13] = assay: Induction of cell cycle arrest in human HeLa cells assessed as accumulation at subG1 phase at 4 uM after 24 hrs by propidium iodide staining based flow cytometry (reference value: 1%)
HeLa [14] = assay: Induction of cell cycle arrest in human HeLa cells assessed as accumulation at G1 phase at 4 uM after 24 hrs by propidium iodide staining based flow cytometry (reference value: 45%)
HeLa [15] = assay: Induction of cell cycle arrest in human HeLa cells assessed as accumulation at S phase at 4 uM after 24 hrs by propidium iodide staining based flow cytometry (reference value: 24%)
HeLa [16] = assay: Induction of cell cycle arrest in human HeLa cells assessed as accumulation at G2/M phase at 4 uM after 24 hrs by propidium iodide staining based flow cytometry (reference value: 31%)
HeLa [17] = assay: Induction of cell cycle arrest in human HeLa cells assessed as accumulation at subG1 phase at 0.1 uM after 24 hrs by propidium iodide staining based flow cytometry (reference value: 1%)
HeLa [18] = assay: Induction of cell cycle arrest in human HeLa cells assessed as accumulation at G1 phase at 0.1 uM after 24 hrs by propidium iodide staining based flow cytometry (reference value: 45%)
HeLa [19] = assay: Induction of cell cycle arrest in human HeLa cells assessed as accumulation at S phase at 0.1 uM after 24 hrs by propidium iodide staining based flow cytometry (reference value: 24%)
HeLa [20] = assay: Induction of cell cycle arrest in human HeLa cells assessed as accumulation at G2/M phase at 0.1 uM after 24 hrs by propidium iodide staining based flow cytometry (reference value: 31%)

SMILES: COc1ccc(N(C)c2nc(C)nc3c2nc(C)n3C)cc1
- pIC50 [1]: 5.14
- pIC50 [2]: 5.06
- pIC50 [3]: 5.13
- pIC50 (L1210; read-out: IC50): 4.72
- pIC50 (CCRF-CEM): 5.21
- pIC50 (HeLa [4]): 5.35
- Activity (HeLa [5]): 39%
- Activity (HeLa [6]): 14%
- Activity (HeLa [7]): 18%
- Activity (HeLa [8]): 8%
- Activity (HeLa [9]): 29%
- Activity (HeLa [10]): 15%
- Activity (HeLa [11]): 25%
- Activity (HeLa [12]): 63%

SMILES: COc1ccc(Nc2nc(C)nc3c2nc(C)n3C)cc1
- pIC50 [1]: ≤ 4.00
- pIC50 [2]: ≤ 4.00
- pIC50 [3]: ≤ 4.00
- pIC50 (L1210; read-out: IC50): ≤ 3.60
- pIC50 (CCRF-CEM): < 3.60
- pIC50 (HeLa [4]): 3.71

SMILES: COc1cccc(N(C)c2nc(C)nc3c2nc(C)n3C)c1
- pIC50 [1]: ≤ 4.00
- pIC50 [2]: ≤ 4.00
- pIC50 [3]: ≤ 4.00
- pIC50 (L1210; read-out: IC50): < 3.60
- pIC50 (CCRF-CEM): < 3.60
- pIC50 (HeLa [4]): < 3.60

SMILES: Cc1ccc(N(C)c2nc(C)nc3c2nc(C)n3C)cc1
- pIC50 [1]: < 4.00
- pIC50 [2]: < 4.00
- pIC50 [3]: < 4.00
- pIC50 (L1210; read-out: IC50): ≤ 3.60
- pIC50 (CCRF-CEM): 3.79
- pIC50 (HeLa [4]): ≤ 3.60

SMILES: Cc1nc(N(C)c2ccc(OC(F)(F)F)cc2)c2nc(C)n(C)c2n1
- pIC50 [1]: < 4.00
- pIC50 [2]: < 4.00
- pIC50 [3]: < 4.00
- pIC50 (L1210; read-out: IC50): < 3.60
- pIC50 (CCRF-CEM): 3.88
- pIC50 (HeLa [4]): 3.73

SMILES: COc1ccc(N(C)c2ncnc3c2nc(C)n3C)cc1
- pIC50 [1]: ≤ 4.00
- pIC50 [2]: ≤ 4.00
- pIC50 [3]: ≤ 4.00
- pIC50 (L1210; read-out: IC50): < 3.60
- pIC50 (CCRF-CEM): < 3.60
- pIC50 (HeLa [4]): < 3.60

SMILES: COc1ccc(N(C)c2nc(C)nc3c2ncn3C)cc1
- pIC50 [1]: 5.04
- pIC50 [2]: 4.82
- pIC50 [3]: 5.03
- pIC50 (L1210; read-out: IC50): 4.52
- pIC50 (CCRF-CEM): 4.68
- pIC50 (HeLa [4]): 4.66

SMILES: COc1ccc(N(C)c2nc(C)nc3[nH]c(C)nc23)cc1
- pIC50 [1]: 5.15
- pIC50 [2]: 5.05
- pIC50 [3]: 5.05
- pIC50 (L1210; read-out: IC50): 3.64
- pIC50 (CCRF-CEM): 4.64
- pIC50 (HeLa [4]): 4.85
- Activity (HeLa [5]): 5%
- Activity (HeLa [6]): 11%
- Activity (HeLa [7]): 39%
- Activity (HeLa [8]): 6%
- Activity (HeLa [9]): 27%
- Activity (HeLa [10]): 15%
- Activity (HeLa [11]): 31%
- Activity (HeLa [12]): 68%

SMILES: CCN(c1ccc(OC)cc1)c1nc(C)nc2c1nc(C)n2C
- pIC50 [1]: 5.06
- pIC50 [2]: 4.82
- pIC50 [3]: 4.96
- pIC50 (L1210; read-out: IC50): 4.46
- pIC50 (CCRF-CEM): 4.80
- pIC50 (HeLa [4]): 4.70
- Activity (HeLa [5]): 6%
- Activity (HeLa [6]): 36%
- Activity (HeLa [7]): 39%
- Activity (HeLa [8]): 12%
- Activity (HeLa [9]): 27%
- Activity (HeLa [10]): 18%
- Activity (HeLa [11]): 28%
- Activity (HeLa [12]): 34%

SMILES: COc1ccc2c(c1)CCCN2c1nc(C)nc2c1nc(C)n2C
- pIC50 [1]: 5.64
- pIC50 [2]: 5.36
- pIC50 [3]: 5.62
- pIC50 (L1210; read-out: IC50): 5.29
- pIC50 (CCRF-CEM): 5.46
- pIC50 (HeLa [4]): 5.36
- Activity (HeLa [5]): 7%
- Activity (HeLa [6]): 8%
- Activity (HeLa [13]): 20%
- Activity (HeLa [7]): 3%
- Activity (HeLa [8]): 3%
- Activity (HeLa [14]): 35%
- Activity (HeLa [9]): 8%
- Activity (HeLa [10]): 8%
- Activity (HeLa [15]): 18%
- Activity (HeLa [11]): 80%
- Activity (HeLa [12]): 79%
- Activity (HeLa [16]): 27%

SMILES: COc1cc2c(c(OC)c1OC)-c1ccc(OC)c(=O)cc1[C@@H](NC(C)=O)CC2 [COLCHICINE]
- pIC50 [2]: 7.51
- pIC50 [3]: 8.16
- pIC50 (L1210): 7.85
- pIC50 (CCRF-CEM): 7.51
- Activity (HeLa [17]): 6%
- Activity (HeLa [18]): 5%
- Activity (HeLa [19]): 10%
- Activity (HeLa [20]): 80%
